Experimental data: ChEMBL document CHEMBL2331298, “Flavonoids as receptor tyrosine kinase FLT3 inhibitors” (Bioorg Med Chem Lett, 2013)

Columns and labels:
[1] = target: T1, Receptor-type tyrosine-protein kinase FLT3 (Homo sapiens, UniProt P36888); test: Inhibition of recombinant FLT3 (unknown origin) by TR-FRET assay
T1 sequence (P36888 whole entry): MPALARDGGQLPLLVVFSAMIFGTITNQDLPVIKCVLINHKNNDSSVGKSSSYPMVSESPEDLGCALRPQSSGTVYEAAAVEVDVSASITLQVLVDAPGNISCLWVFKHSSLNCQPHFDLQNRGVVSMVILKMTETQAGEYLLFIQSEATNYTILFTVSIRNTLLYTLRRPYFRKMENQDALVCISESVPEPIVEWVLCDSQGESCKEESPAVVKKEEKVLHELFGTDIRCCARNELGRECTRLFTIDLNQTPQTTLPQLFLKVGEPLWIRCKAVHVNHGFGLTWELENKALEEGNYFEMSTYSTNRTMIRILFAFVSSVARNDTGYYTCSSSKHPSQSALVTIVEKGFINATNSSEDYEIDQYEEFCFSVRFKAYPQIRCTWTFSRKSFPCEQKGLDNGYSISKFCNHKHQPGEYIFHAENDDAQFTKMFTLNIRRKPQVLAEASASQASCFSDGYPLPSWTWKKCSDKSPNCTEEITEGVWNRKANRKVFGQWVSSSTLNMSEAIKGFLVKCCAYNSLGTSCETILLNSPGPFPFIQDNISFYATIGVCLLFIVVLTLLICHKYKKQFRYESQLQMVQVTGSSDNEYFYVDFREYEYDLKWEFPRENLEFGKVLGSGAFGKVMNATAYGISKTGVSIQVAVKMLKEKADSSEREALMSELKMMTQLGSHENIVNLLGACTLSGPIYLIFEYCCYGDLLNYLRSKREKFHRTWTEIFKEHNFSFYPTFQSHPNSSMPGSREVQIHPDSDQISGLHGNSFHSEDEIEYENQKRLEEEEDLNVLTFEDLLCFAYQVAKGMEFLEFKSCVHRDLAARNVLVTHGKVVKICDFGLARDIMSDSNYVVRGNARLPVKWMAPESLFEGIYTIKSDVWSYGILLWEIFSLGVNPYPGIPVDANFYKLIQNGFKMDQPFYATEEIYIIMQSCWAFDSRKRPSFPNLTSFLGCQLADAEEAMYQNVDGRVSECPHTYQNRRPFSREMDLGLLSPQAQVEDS

[2] = system: MV4-11; test: Cytotoxicity against human MV4-11 cells harboring FLT3 mutation after 72 hrs by tetrazolium based Ez CyTox cell viability assay; format: functional; conditions: MV4-11, 72 h
[3] = Cytotoxicity against human RS4:11 cells harboring wild type FLT3 after 72 hrs by tetrazolium based Ez CyTox cell viability assay; format: functional; conditions: RS4-11, 72 h
[4] = system: MV4-11; test: Cell cycle arrest in human MV4-11 cells harboring FLT3 mutation assessed as accumulation at G2/M phase at 0.1 uM after 48 hrs using propidium iodide staining by flow cytometry (reference value: 11.61%); format: functional
[5] = system: MV4-11; test: Cell cycle arrest in human MV4-11 cells harboring FLT3 mutation assessed as accumulation at G1 phase at 1 uM after 48 hrs using propidium iodide staining by flow cytometry (reference value: 69.69%); format: functional
[6] = system: MV4-11; test: Cell cycle arrest in human MV4-11 cells harboring FLT3 mutation assessed as accumulation at G2/M phase at 1 uM after 48 hrs using propidium iodide staining by flow cytometry (reference value: 11.61%); format: functional
[7] = system: MV4-11; test: Cell cycle arrest in human MV4-11 cells harboring FLT3 mutation assessed as accumulation at S phase at 1 uM after 48 hrs using propidium iodide staining by flow cytometry (reference value: 15.48%); format: functional
[8] = system: MV4-11; test: Cell cycle arrest in human MV4-11 cells harboring FLT3 mutation assessed as accumulation at sub-G1 phase at 0.1 uM after 48 hrs using propidium iodide staining by flow cytometry (reference value: 3.86%); format: functional
[9] = system: MV4-11; test: Cell cycle arrest in human MV4-11 cells harboring FLT3 mutation assessed as accumulation at G1 phase at 0.1 uM after 48 hrs using propidium iodide staining by flow cytometry (reference value: 69.69%); format: functional
[10] = system: MV4-11; test: Cell cycle arrest in human MV4-11 cells harboring FLT3 mutation assessed as accumulation at sub-G1 phase at 10 uM after 48 hrs using propidium iodide staining by flow cytometry (reference value: 3.86%); format: functional
[11] = system: MV4-11; test: Cell cycle arrest in human MV4-11 cells harboring FLT3 mutation assessed as accumulation at G2/M phase at 10 uM after 48 hrs using propidium iodide staining by flow cytometry (reference value: 11.61%); format: functional
[12] = system: MV4-11; test: Cell cycle arrest in human MV4-11 cells harboring FLT3 mutation assessed as accumulation at sub-G1 phase at 1 uM after 48 hrs using propidium iodide staining by flow cytometry (reference value: 3.86%); format: functional
[13] = system: MV4-11; test: Cell cycle arrest in human MV4-11 cells harboring FLT3 mutation assessed as accumulation at S phase at 0.1 uM after 48 hrs using propidium iodide staining by flow cytometry (reference value: 15.48%); format: functional
[14] = system: MV4-11; test: Cell cycle arrest in human MV4-11 cells harboring FLT3 mutation assessed as accumulation at S phase at 10 uM after 48 hrs using propidium iodide staining by flow cytometry (reference value: 15.48%); format: functional
[15] = system: MV4-11; test: Cell cycle arrest in human MV4-11 cells harboring FLT3 mutation assessed as accumulation at G1 phase at 10 uM after 48 hrs using propidium iodide staining by flow cytometry (reference value: 69.69%); format: functional

SMILES	IC50 [1]	GI50 [2]	GI50 [3]	further results
O=c1c(OC2O[C@H](CO)[C@H](O)[C@H](O)[C@H]2O)c(-c2ccc(O)c(O)c2)oc2cc(O)cc(O)c12 (stereo not given in full)	> 10 µM			
O=c1c(OC2O[C@H](CO)[C@@H](O)[C@H](O)[C@@H]2O)c(-c2ccc(O)c(O)c2)oc2cc(O)cc(O)c12 (stereo not given in full)	> 10 µM			
O=c1cc(-c2ccc(O)cc2)oc2cc(O)cc(O)c12 [APIGENIN]	1.45 µM	2.81 µM	27.9 µM	
O=c1cc(-c2ccccc2)oc2cc(O)c(O)c(O)c12 [BAICALEIN]	> 10 µM			
O=c1cc(-c2ccccc2)oc2cc(O)cc(O)c12 [CHRYSIN]	> 10 µM			
O=C1c2c(O)cc(O)cc2O[C@H](c2ccc(O)cc2)[C@H]1O [DIHYDROKAEMPFEROL]	> 10 µM			
O=C1C[C@@H](c2ccc(O)c(O)c2)Oc2cc(O)cc(O)c21 [ERIODICTYOL]	> 10 µM			
O=c1c(O)c(-c2ccccc2)oc2cc(O)cc(O)c12 [GALANGIN]	> 10 µM			
O=c1c(O[C@@H]2O[C@H](CO)[C@@H](O)[C@H](O)[C@H]2O)c(-c2ccc(O)c(O)c2)oc2cc(O)cc(O)c12 [ISOQUERCETIN]	> 10 µM			
O=c1c(O)c(-c2ccc(O)cc2)oc2cc(O)cc(O)c12 [KAEMPFEROL]	2.32 µM	3.34 µM	> 50 µM	
O=c1cc(-c2ccc(O)c(O)c2)oc2cc(O)cc(O)c12 [LUTEOLIN]	0.83 µM	1.76 µM	7.25 µM	Activity [4]: 4.9%; Activity [5]: 67.08%; Activity [6]: 4.2%; Activity [7]: 12.8%; Activity [8]: 13.71%; Activity [9]: 71.25%; Activity [10]: 30.76%; Activity [11]: 0.51%; Activity [12]: 16.42%; Activity [13]: 10.5%; Activity [14]: 2.09%; Activity [15]: 66.68%
O=c1c(O)c(-c2cc(O)c(O)c(O)c2)oc2cc(O)cc(O)c12 [MYRICETIN]	1.69 µM	> 50 µM	> 50 µM	
O=C1C[C@@H](c2ccc(O)cc2)Oc2cc(O)cc(O)c21 [NARINGENIN]	> 10 µM			
COc1c(O)cc2oc(-c3ccccc3)cc(=O)c2c1O [OROXYLIN A]	1.48 µM	5.59 µM	40 µM	
O=c1c(O)c(-c2ccc(O)c(O)c2)oc2cc(O)cc(O)c12 [QUERCETIN]	0.59 µM	13.1 µM	21.6 µM	
O=c1cc(-c2ccc(O)cc2)oc2cc(O)c(O)c(O)c12 [SCUTELLAREIN]	> 10 µM			
